{"source": "patent US8148426B2", "about": "“Bis(thio-hydrazide amides) for increasing Hsp70 expression” (Synta Pharmaceuticals Corp., priority 2004, dated 2012)", "key": {"in vivo": {"assay": "in vivo", "protocol": "The compounds were prepared in two formulations: Formulation A contained 10% DMSO, and 18% Cremophor RH40 in water; Formulation B contained ethanol:Cremophor EL in a 1:1 ratio.\nBlood samples were taken at 30 min, 1, 2, and 4 hr after injection. Brain tissue samples were taken after blood collected at 30 min, where one mouse from each group was selected and its brain was removed for analysis.\nBlood samples were combined with 3-5 mg solid DTT, after which the sample was vortexed and centrifuged at 6,000 rpm×10 min. A 50 μL aliqot of plasma was taken, followed by the addition of 50 μL 1% DTT and 150 μL CH3CN (0.1% TFA). The mixture was vortexed and centrifuged at 10,000 rpm×5 min. The 150 μL supernatant was diluted with 150 μL water. A weighed tissue sample was homogenized in PBS (1:1), then combined with 1% DTT (1:1), followed by the addition of CH3CN containing 0.1% TFA (3:1). The mixture was vortexed and centrifuged at 10,000 rpm×5 min. The 150 μL supernatant was diluted with 150 μL water. 100 μL prepared samples were subjected to HPLC, using 5-95% CH3CN (0.1% trifluoroacetic acid) as the eluent."}, "[1]": {"details": "in vivo"}, "[2]": {"assay": "Phase I trial, plasma pharmacokinetics by LC/MS (Example 11)", "details": "co-administered with Compound (1) 44-[…]^2", "protocol": "Pharmacokinetic (PK) studies were performed during cycle 1 using liquid chromatography/mass spectrometry (LC/MS) to measure both compounds in plasma. Heat shock protein 70 (Hsp70) was measured in plasma before and after treatment."}, "K562/eGFP": {"tested_on": "K562/eGFP", "assay": "NK cell cytotoxic activity of patients' PBMC (Example 12)", "format": "in vivo, human", "source_text": "The following procedure can be employed to assay NK cell activity in a subject. The procedure is adapted from Kantakamalakul W, Jaroenpool J, Pattanapanyasat K. A novel enhanced green fluorescent protein (EGFP)-K562 flow cytometric method for measuring natural killer (NK) cell cytotoxic activity. J Immunol Methods. 2003 Jan. 15; 272:189-197, the entire teachings of which are incorporated herein by reference.\nK562 cells were transduced with retroviral vector which encode green fluorescent protein (eGFP). Stable cell line was selected with antibiotic, G418.\nThe subject's peripheral blood mononuclear cells (PBMCs) were prepared by clinical study sites and received in BD Vacutainer Cell Preparation Tube with sodium heparin (Product Number: 362753, Becton Dickinson, Franklin Lakes, N.J.).\nEffector cells alone and target cells alone were used as controls. All tubes were incubated at 37° C. with 5% CO2 for about 3.5 hr. Ten microliters of propidium iodide (PI) at a concentration of 1 mg/mL was added t each tube including effector and target control tubes and then incubated at room temperature for 15 min.\nCytotoxic activity was analyzed with a FACSCalibur flow cytometer (Becton Dickinson). Linear amplification of the forward and side scatter (FSC/SSC) signals, as well as logarithmic amplification of eGFP and PI emission in green and red fluorescence were obtained. […]"}, "Hsp70 [3]": {"tested_on": "Hsp70", "assay": "Plasma Hsp70 levels by ELISA in non-tumor-bearing mice (Example 3)", "format": "in vivo", "details": "normal (non-tumor bearing) mice; 25 mg/kg intravenously 3 times a week; compared to vehicle", "protocol": "Non-tumor-bearing mice were with either vehicle alone or compound (1). The vehicle employed was 10% DMSO, 18% Cremophor RH40. […] Plasma samples were prepared from tail bleed. Plasma Hsp70 levels were determined by Enzyme-Linked Immunosorbent Assay (ELISA). Plasma Hsp70 was measured by a sandwich ELISA kit (Stressgen Bioreagents Victoria, British Columbia, CANADA) according to a modified protocol in house. In brief, Hsp70 in plasma specimens and serial concentrations of Hsp70 standard were captured onto 96-well plate on which anti-Hsp70 antibody was coated. Then captured Hsp70 was detected with a biotinylated anti-Hsp70 antibody followed by incubation with europium-conjugated streptavidin. After each incubation unbound materials were removed by washing. Finally, antibody-Hsp70 complex was measured by time resolved fluorometry of europium. Concentration of Hsp70 was calculated from a standard curve."}, "Hsp70 [4]": {"tested_on": "Hsp70", "assay": "Phase I trial, Hsp70 in plasma before and after treatment (Example 11)", "format": "in vivo, human", "protocol": "Plasma Hsp70 was measured by a sandwich ELISA kit (Stressgen Bioreagents Victoria, British Columbia, CANADA) according to a modified protocol in house. In brief, Hsp70 in plasma specimens and serial concentrations of Hsp70 standard were captured onto 96-well plate on which anti-Hsp70 antibody was coated. Then captured Hsp70 was detected with a biotinylated anti-Hsp70 antibody followed by incubation with europium-conjugated streptavidin. After each incubation unbound materials were removed by washing. Finally, antibody-Hsp70 complex was measured by time resolved fluorometry of europium. Concentration of Hsp70 was calculated from a standard curve."}, "[5]": {"assay": "Phase 1/2 study, safety (Example 12)", "format": "in vivo, human", "protocol": "Phase 1 (safety/PK/MTD (maximum tolerated dose) was followed by a Phase 2 randomized two arm portion. Two dose levels were evaluated in Phase 1.\nDosing was IV q 3 weeks for up to 6 cycles in the absence of dose-limiting toxicity or progression. […] The phase 2 primary endpoint is time to progression, with secondary endpoints of response rate, survival, and quality of life. Study pharmacodynamic parameters include NK cell activity and Hsp70 level."}, "[6]": {"assay": "Tissue distribution in SW female mice, intravenous (Example 1)", "format": "in vivo", "details": "mouse", "protocol": "Plasma samples were prepared by combining 50 μL plasma+50 μL 1% dithiothreitol (DTT)+150 μL CH3CN (0.1% HCOOH), centrifuged at 10,000 rpm×5 min; 150 μL supernatant+90 μL H2O. Tissue samples were prepared by homogenizing a weighed tissue sample in phosphor-buffered saline (PBS, ×1)+1% DTT (×1)+CH3CN (0.1% HCOOH) (×3)), centrifuged at 10,000 rpm×5 min; 150 μL supernatant+90 μL H2O. […] The running time was 15 min."}}, "note": "“And” between values parts separate entries of the source, which are not always exact repeats. Equal entries are not always repeated. Where two headings read alike, the source gives them in different places."}
{"smiles": "COc1ccc(OC)c(C(=S)N(C)NC(=O)C(C)C(=O)NN(C)C(=S)c2cc(OC)ccc2OC)c1", "note": "[Compound (9)]", "values": [{"measurement": "per os AUC as % of the intravenous value at 4 hours", "setting": "in vivo; per os 100 mg/kg formulation B vs intravenous 25 mg/kg formulation A, AUC 0-4 hours", "value": "about 30%"}]}
{"smiles": "CC(=O)O[C@H]1C(=O)[C@@]2(C)[C@H]([C@H](OC(=O)c3ccccc3)[C@]3(O)C[C@H](OC(=O)[C@H](O)[C@@H](NC(=O)c4ccccc4)c4ccccc4)C(C)=C1C3(C)C)[C@]1(OC(C)=O)CO[C@@H]1C[C@@H]2O", "note": "[Paclitaxel, paclitaxel]", "values": [{"measurement": "dose limiting toxicities", "setting": "[1]", "value": "neutropenia, arthralgia, and febrile neutropenia with mucositis"}, {"measurement": "paclitaxel Vss, dependence on the Compound (1) dose", "setting": "[2]", "value": "increase"}, {"measurement": "paclitaxel clearance, dependence on the Compound (1) dose", "setting": "[2]", "value": "significant trend toward decreasing clearance"}, {"measurement": "paclitaxel terminal phase half-life, dependence on the Compound (1) dose", "setting": "[2]", "value": "without affecting"}]}
{"smiles": "CN(NC(=O)CC(=O)NN(C)C(=S)c1ccccc1)C(=S)c1ccccc1", "note": "[Compound (1)]", "values": [{"measurement": "patients with evaluable samples showing increased NK cell activity", "setting": "K562/eGFP; assayed 7 days after the second dose, with carboplatin and paclitaxel", "value": "Seven of the 8"}, {"measurement": "% tumor cell lysis post-dose", "setting": "K562/eGFP; per subject, Effector/Target 80:1, dose cells empty (subjects 9-11)", "value": "3.8% and 45.98%"}, {"measurement": "plasma levels of Hsp70", "setting": "Hsp70 [3]", "value": "increase"}, {"measurement": "half-life", "setting": "in vivo; female, SW, mouse, in vivo, po, 100 mg/kg", "value": 2.3, "unit": "h"}, {"measurement": "Hsp70 concentrations, change", "setting": "Hsp70 [4]; 175 mg/m2 Compound (1) + paclitaxel 175 mg/m2, two patients", "value": "more than doubled"}, {"measurement": "percent increase in Hsp70 concentrations", "setting": "Hsp70 [4]; 263 mg/m2 Compound (1) + paclitaxel 175 mg/m2, a third patient", "value": "more than 250%"}, {"measurement": "Hsp70 concentrations, change", "setting": "Hsp70 [4]; 263 mg/m2 Compound (1) + paclitaxel 175 mg/m2, two patients", "value": "roughly doubled"}, {"measurement": "percent increase in Hsp70 concentrations", "setting": "Hsp70 [4]; 350 mg/m2 Compound (1) + paclitaxel 175 mg/m2, all patients", "value": "more than 200%"}, {"measurement": "percent increase in Hsp70 concentrations", "setting": "Hsp70 [4]; 350 mg/m2 Compound (1) + paclitaxel 175 mg/m2, two patients", "value": "≤ 500", "unit": "%"}, {"measurement": "percent increase in Hsp70 concentrations", "setting": "Hsp70 [4]; 438 mg/m2 Compound (1) + paclitaxel 175 mg/m2, another patient", "value": "≤ 500", "unit": "%"}, {"measurement": "Hsp70 concentrations, change", "setting": "Hsp70 [4]; 438 mg/m2 Compound (1) + paclitaxel 175 mg/m2, two patients", "value": "roughly doubled"}, {"measurement": "induction of Hsp70 protein in plasma, dose dependence", "setting": "Hsp70 [4]; combined with paclitaxel", "value": "dose dependent"}, {"measurement": "adverse effects (AEs), usually Grade 1-2", "setting": "[5]; Phase 1, 16 patients, with carboplatin and paclitaxel", "value": "arthralgia and myalgia, peripheral neuropathy, rash, nausea, and vomiting, fatigue, alopecia, edema, dehydration, constipation, and decreased blood counts"}, {"measurement": "tolerability of the carboplatin:paclitaxel:Compound (1) combination", "setting": "[5]; at the dose levels studied", "value": "well tolerated"}]}
{"smiles": "CN(NC(=O)CC(=O)NN(C)C(=S)C1CC1)C(=S)C1CC1", "note": "[Compound (18)]", "values": [{"measurement": "Kp at 30 min", "setting": "[6]; brain, intravenous, 25 mg/kg, read-out: brain concentration as % of plasma concentration", "value": 0.19}, {"measurement": "Kp at 30 min", "setting": "[6]; brain, iv, first experiment, 25 mg/kg intravenously, 30 min after injection, read-out: brain concentration as % of the plasma concentration", "value": "~0.07"}, {"measurement": "concentration at 30 min", "setting": "[6]; brain, iv, first experiment, 25 mg/kg intravenously, 30 min after injection, read-out: concentration in brain", "value": "~2", "unit": "µM"}, {"measurement": "concentration at 30 min", "setting": "[6]; kidney, iv, first experiment, 25 mg/kg intravenously, 30 min after injection, read-out: concentration in kidney", "value": 50, "unit": "µM"}, {"measurement": "concentration at 30 min", "setting": "[6]; liver, iv, first experiment, 25 mg/kg intravenously, 30 min after injection, read-out: concentration in liver", "value": 33, "unit": "µM"}, {"measurement": "concentration at 30 min", "setting": "[6]; spleen, iv, first experiment, 25 mg/kg intravenously, 30 min after injection, read-out: concentration in spleen", "value": 25, "unit": "µM"}]}
